Legend:
[1] = system: MED1 signal at the MYC locus in MCF7 cells; assay: Immunofluorescence for MED1 with DNA FISH at the MYC locus; type: cell-based, human; details: MCF7 cells estrogen-deprived 3 days; 10 uM estradiol, or 10 uM estradiol and 5 uM 4-hydroxytamoxifen, 45 minutes
Protocol: Human tumor tissues sliced at 10 μm thickness or cells grown on Poly-L-Ornithine coated glass were washed once with PBS and fixed in 4% Paraformaldehyde, PFA, (VWR, BT140770) for 10 minutes. After three washes in PBS for 5 min, cells were stored at 4° C. or transferred to a humidifying chamber and processed for immunofluorescence. Permeabilization of cells was performed using 0.5% triton X100 (Sigma Aldrich, X100) in PBS for 10 minutes followed by three PBS washes. Cells were blocked with 4% IgG-free Bovine Serum Albumin, BSA, (VWR, 102643-516) for 30 minutes and the indicated primary antibody (ER ab32063, MED1 ab64965) was added at a concentration of 1:500 in 4% IgG-free Bovine Serum Albumin for 4-16 hours. […]
For analysis of RNA/DNA FISH with immunofluorescence, custom Python scripts were written to process and analyze 3D image data gathered in FISH and IF channels. […] These FISH foci were filtered by various criteria, including size (minimum 100 voxels), circularity of a max z-projection (circularity=4pi*area/perimeter^2; 0.7), and being present in a nucleus (determined by nuclear mask described above). […] The IF signal centered at FISH foci for each FISH and IF pair are then combined and an average intensity projection is calculated, providing averaged data for IF signal intensity within a l×l square centered at FISH foci. […]

[2] = system: MYC RNA expression in MCF7 cells; assay: RT-qPCR of MYC RNA expression; type: cell-based, human; details: MCF7 cells estrogen-deprived 3 days; 10 nM estrogen, or 10 nM estrogen and 5 uM 4-hydroxytamoxifen, 24 hours; normalized to GAPDH
Protocol: RNA was isolated by AllPrep Kit (Qiagen 80204) followed by cDNA synthesis using High-Capacity cDNA Reverse Transcription Kit (Applies Biosystems 4368814). qPCR was performed in biological and technical triplicate using Power SYBR Green mix (Life Technologies #4367659) on a QuantStudio 6 System (Life Technologies). The following oligos was used in the qPCR; Myc fwd […] (SEQ ID NO: 255), MYC rev […] (SEQ ID NO: 256), GAPDH fwd […] (SEQ ID NO: 257), GAPDH rev […] (SEQ ID NO: 258). Fold change was calculated and MYC expression values were normalized to GAPDH expression.

With C[C@]12CC[C@@H]3c4ccc(O)cc4CC[C@H]3[C@@H]1CC[C@@H]2O [estrogen, B-Estradiol] the “MED1 signal at MYC” value [1] was “enhanced” and the “MYC RNA expression” value [2] was “increase”.

In the case of CC/C(=C(\c1ccccc1)c1ccc(OCCN(C)C)cc1)c1ccccc1 [tamoxifen], the “MED1 signal at MYC” value [1] is reported as “reduced” and the “MYC RNA expression” value [2] is reported as “reduced”.
